Measurements: PubChem BioAssay (NCI)
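Five compound concentrations were applied to cells in 96-well plates for 48 hours; endpoints were derived by simple linear interpolation of the resulting dose-response curve. The concentration for 50% growth inhibition is given as GI50. TGI: total growth inhibition.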

Legend:
Test in all cases: NCI tumour cell line growth inhibition, 48 h
NCI/ADR-RES ovarian = system: NCI/ADR-RES ovarian
SN12C renal = system: SN12C renal
OVCAR-8 ovarian = system: OVCAR-8 ovarian
A549 NSCLC = system: A549 NSCLC
K-562 leukemia = system: K-562 leukemia
A498 renal = system: A498 renal
TK-10 renal = system: TK-10 renal
SK-MEL-28 melanoma = system: SK-MEL-28 melanoma
BT-549 breast = system: BT-549 breast
NCI-H226 lung = system: NCI-H226 lung
MDA-MB-231 breast = system: MDA-MB-231 breast
SNB-19 CNS = system: SNB-19 CNS
786-0 renal = system: 786-0 renal
IGROV1 ovarian = system: IGROV1 ovarian
M14 melanoma = system: M14 melanoma
HCT-116 colon = system: HCT-116 colon
LOX IMVI melanoma = system: LOX IMVI melanoma
T-47D breast = system: T-47D breast
SNB-75 CNS = system: SNB-75 CNS
UACC-62 melanoma = system: UACC-62 melanoma
CAKI-1 renal = system: CAKI-1 renal
UACC-257 melanoma = system: UACC-257 melanoma
SK-MEL-2 melanoma = system: SK-MEL-2 melanoma
MOLT-4 leukemia = system: MOLT-4 leukemia
SW-620 colon = system: SW-620 colon
SF-539 CNS = system: SF-539 CNS
SK-OV-3 ovarian = system: SK-OV-3 ovarian
MDA-MB-435 = system: MDA-MB-435
HL-60(TB) leukemia = system: HL-60(TB) leukemia
HT29 colon = system: HT29 colon
NCI-H460 lung = system: NCI-H460 lung
SF-295 CNS = system: SF-295 CNS
HS 578T breast = system: HS 578T breast
SR leukemia = system: SR leukemia
DU-145 prostate = system: DU-145 prostate
CCRF-CEM leukemia = system: CCRF-CEM leukemia
U251 CNS = system: U251 CNS
MALME-3M melanoma = system: MALME-3M melanoma
MCF7 breast = system: MCF7 breast
EKVX NSCLC = system: EKVX NSCLC
UO-31 renal = system: UO-31 renal
SF-268 CNS = system: SF-268 CNS
OVCAR-3 ovarian = system: OVCAR-3 ovarian
SK-MEL-5 melanoma = system: SK-MEL-5 melanoma
RXF 393 renal = system: RXF 393 renal
HCT-15 colon = system: HCT-15 colon
RPMI-8226 leukemia = system: RPMI-8226 leukemia
OVCAR-4 ovarian = system: OVCAR-4 ovarian
COLO 205 colon = system: COLO 205 colon
ACHN renal = system: ACHN renal
PC-3 prostate = system: PC-3 prostate
HCC-2998 colon = system: HCC-2998 colon
HOP-62 NSCLC = system: HOP-62 NSCLC
NCI-H522 lung = system: NCI-H522 lung
KM12 colon = system: KM12 colon
NCI-H23 lung = system: NCI-H23 lung
OVCAR-5 ovarian = system: OVCAR-5 ovarian

Molecule `Oc1c(CN2CCCCC2)ccc2cccnc12` has a GI50 (NCI/ADR-RES ovarian) of 955 nM, a TGI (NCI/ADR-RES ovarian) of 10.9 µM and a GI50 (SN12C renal) of 4.62 µM. For the same molecule, the TGI (SN12C renal) was > 100 µM, the GI50 (OVCAR-8 ovarian) was 3.18 µM and the TGI (OVCAR-8 ovarian) was 22.8 µM. The GI50 (A549 NSCLC) was 3.72 µM, the TGI (A549 NSCLC) was 28.1 µM and the GI50 (K-562 leukemia) was 3.63 µM. The TGI (K-562 leukemia) was > 100 µM, the GI50 (A498 renal) was 5.46 µM and the TGI (A498 renal) was 21.3 µM. It also gave a GI50 (TK-10 renal) of 3.98 µM, a TGI (TK-10 renal) of 42.9 µM and a GI50 (SK-MEL-28 melanoma) of 9.23 µM. For the same molecule, the TGI (SK-MEL-28 melanoma) was > 100 µM, the GI50 (BT-549 breast) was 10.4 µM and the TGI (BT-549 breast) was > 100 µM. It also gave a GI50 (NCI-H226 lung) of 2410 nM, a TGI (NCI-H226 lung) of 16 µM and a GI50 (MDA-MB-231 breast) of 4.79 µM. For the same molecule, the TGI (MDA-MB-231 breast) was > 100 µM, the GI50 (SNB-19 CNS) was 8.86 µM and the TGI (SNB-19 CNS) was > 100 µM. The GI50 (786-0 renal) was 2720 nM, the TGI (786-0 renal) was > 100 µM and the GI50 (IGROV1 ovarian) was 2520 nM. The TGI (IGROV1 ovarian) was 7.8 µM, the GI50 (M14 melanoma) was 2300 nM and the TGI (M14 melanoma) was 8.06 µM. It also gave a GI50 (HCT-116 colon) of 2730 nM, a TGI (HCT-116 colon) of 9.18 µM and a GI50 (LOX IMVI melanoma) of 3.6 µM. It also gave a TGI (LOX IMVI melanoma) of 17.3 µM, a GI50 (T-47D breast) of 3.63 µM and a TGI (T-47D breast) of 31 µM. It also gave a GI50 (SNB-75 CNS) of 5.67 µM, a TGI (SNB-75 CNS) of 74.3 µM and a GI50 (UACC-62 melanoma) of 3.95 µM. It also gave a TGI (UACC-62 melanoma) of 51.4 µM, a GI50 (CAKI-1 renal) of 520 nM and a TGI (CAKI-1 renal) of 3.23 µM. It also gave a GI50 (UACC-257 melanoma) of 2910 nM, a TGI (UACC-257 melanoma) of 83.3 µM and a GI50 (SK-MEL-2 melanoma) of 4.03 µM. For the same molecule, the TGI (SK-MEL-2 melanoma) was 24.4 µM, the GI50 (MOLT-4 leukemia) was 3.97 µM and the TGI (MOLT-4 leukemia) was > 100 µM. For the same molecule, the GI50 (SW-620 colon) was 4.26 µM, the TGI (SW-620 colon) was 18 µM and the GI50 (SF-539 CNS) was 4.89 µM. For the same molecule, the TGI (SF-539 CNS) was 39.5 µM, the GI50 (SK-OV-3 ovarian) was 4.33 µM and the TGI (SK-OV-3 ovarian) was 25 µM. The GI50 (MDA-MB-435) was 4.65 µM, the TGI (MDA-MB-435) was 21.4 µM and the GI50 (HL-60(TB) leukemia) was 3.34 µM. It also gave a TGI (HL-60(TB) leukemia) of 12.8 µM, a GI50 (HT29 colon) of 4.88 µM and a TGI (HT29 colon) of 19.6 µM. It also gave a GI50 (NCI-H460 lung) of 2310 nM, a TGI (NCI-H460 lung) of 7.62 µM and a GI50 (SF-295 CNS) of 2690 nM. For the same molecule, the TGI (SF-295 CNS) was 15.4 µM, the GI50 (HS 578T breast) was 11.1 µM and the TGI (HS 578T breast) was > 100 µM. For the same molecule, the GI50 (SR leukemia) was 3.36 µM, the TGI (SR leukemia) was > 100 µM and the GI50 (DU-145 prostate) was 5.42 µM. The TGI (DU-145 prostate) was 36.4 µM, the GI50 (CCRF-CEM leukemia) was 3.21 µM and the TGI (CCRF-CEM leukemia) was > 100 µM. It also gave a GI50 (U251 CNS) of 3.61 µM, a TGI (U251 CNS) of 30.9 µM and a GI50 (MALME-3M melanoma) of 7.18 µM. It also gave a TGI (MALME-3M melanoma) of 52.5 µM, a GI50 (MCF7 breast) of 3.38 µM and a TGI (MCF7 breast) of 14.8 µM. It also gave a GI50 (EKVX NSCLC) of 3.26 µM, a TGI (EKVX NSCLC) of 37.4 µM and a GI50 (UO-31 renal) of 566 nM. The TGI (UO-31 renal) was 5.42 µM, the GI50 (SF-268 CNS) was 6.07 µM and the TGI (SF-268 CNS) was > 100 µM. For the same molecule, the GI50 (OVCAR-3 ovarian) was 2410 nM, the TGI (OVCAR-3 ovarian) was 8.22 µM and the GI50 (SK-MEL-5 melanoma) was 3.56 µM. For the same molecule, the TGI (SK-MEL-5 melanoma) was 42.6 µM, the GI50 (RXF 393 renal) was 4.15 µM and the TGI (RXF 393 renal) was 34.8 µM. For the same molecule, the GI50 (HCT-15 colon) was 728 nM, the TGI (HCT-15 colon) was 82.9 µM and the GI50 (RPMI-8226 leukemia) was 3.71 µM. It also gave a TGI (RPMI-8226 leukemia) of 31 µM, a GI50 (OVCAR-4 ovarian) of 2980 nM and a TGI (OVCAR-4 ovarian) of 9.59 µM. It also gave a GI50 (COLO 205 colon) of 3.64 µM, a TGI (COLO 205 colon) of 15 µM and a GI50 (ACHN renal) of 1870 nM. For the same molecule, the TGI (ACHN renal) was > 100 µM, the GI50 (PC-3 prostate) was 7.12 µM and the TGI (PC-3 prostate) was > 100 µM. The GI50 (HCC-2998 colon) was 6.6 µM, the TGI (HCC-2998 colon) was 32.8 µM and the GI50 (HOP-62 NSCLC) was 3.75 µM. For the same molecule, the TGI (HOP-62 NSCLC) was 54.3 µM, the GI50 (NCI-H522 lung) was 3.6 µM and the TGI (NCI-H522 lung) was 10.9 µM. The GI50 (KM12 colon) was 3.91 µM, the TGI (KM12 colon) was 19.6 µM and the GI50 (NCI-H23 lung) was 6.84 µM. The TGI (NCI-H23 lung) was 36.1 µM, the GI50 (OVCAR-5 ovarian) was 5.23 µM and the TGI (OVCAR-5 ovarian) was 76.9 µM.
